From patent US20170006866A1, “PHYTOSANITARY COMPOSITION” (INSTITUT NATIONAL DE LA RECHERCHE AGRONOMIQUE-INRA, priority 2014, published 2017)

Columns and labels:
Assay type in all cases: in vivo
Myzus persicae [1] = test: Analysis of repellent effect: choice test between control Ap3 medium and test medium, phagostimulation index; settings: Myzus persicae larvae, doses 0 to 1 mM in Ap3 medium
Source text: a) Analysis of repellent effect: the method used is that developed by Yvan Rahbe (Rahbé & Febvay (1993) Entomologia Experimentalis et Applicata 67: 149-160; Chen (1996) Thesis submitted to Institut National des Sciences Appliquées, Lyon, France: 158 p) within the scope of research on the chemical determinants of the resistance of plants to various species of aphids (Aphis gossypii, Acyrthosiphon pisum), and adapted to the green aphid Myzus persicae.
The objective is to evaluate the attractive or repellent nature of a candidate molecule, at different concentrations, either with respect to control base medium (dose “0”), or with respect to another substance. […]
The medium (35 μl) is poured between two Parafilm® membranes stretched onto an Eppendorf® cone. […] The following morning, the number of aphids fixed on each medium is then recorded. […] A phagostimulation index, representing the degree of appetence of the test medium for the aphid, is calculated as follows: […]

Myzus persicae [2] = test: Toxicity on larval growth (cumulative larval mortality on supplemented Ap3 medium), green peach aphid; settings: larval growth D1-D7
Experimental: (§1) b) Measurement of the toxicity of chicoric acid or caftaric acid on larval growth of the green peach aphid (Myzus persicae) and the pea aphid (Acyrthosiphon pisum)
(§2) The objective is to quantify the toxic effect of chicoric acid or caftaric acid on the aphid for the period of larval growth thereof, i.e. 8 to 10 days for Myzus persicae and Acyrthosiphon pisum at 19° C. The molecule is added at different concentrations to the Ap3 control nutrient medium. The dose “0” corresponds to Ap3 medium alone.
(§3) The medium (75 μl) is poured between two UV-sterilized Parafilm® stretched onto a cylindrical PVC support (h=1.5 cm, d=2 cm), under sterile conditions.
(§4) On the Day D0, 20 neonate larvae are deposited inside the cylinder, which is then turned over and applied to a square of Parafilm©. The dishes are placed in filtered light (16 hours day/8 hours night) and in a chamber at 19° C. The fixation percentage is recorded after 1 hour as a short-term phagostimulation indicator and to check that no anomaly occurred during aphid deposition. The larval mortality is recorded daily at the end of the day. […] On the day of the imaginal moult thereof, the aphids having reached the adult aptera stage are deposited successively on a precision balance (d=0.01 mg) and the cumulative weights are recorded for each concentration of each of the two molecules tested. The individual weights are calculated subsequently. […]

Acyrthosiphon pisum = test: Toxicity on larval growth (cumulative larval mortality on supplemented Ap3 medium), pea aphid
Experimental: as §1, §2, §3, §4

What does the source list for `O=C(/C=C/c1ccc(O)c(O)c1)O[C@@H](C(=O)O)[C@@H](OC(=O)/C=C/c1ccc(O)c(O)c1)C(=O)O` [chicoric acid, dicaffeyl tartaric acid]?
dose from which a highly significant repellent effect is displayed (Myzus persicae [1]; 15 hours at 19° C.): ≥ 62.5 µM; repellent effect (result in words) (Myzus persicae [1]): significant repellent effect; larval mortality (Myzus persicae [2]; from 0.125 mM in Ap3 medium): ~80%; larval mortality (Myzus persicae [2]; from 0.25 mM in Ap3 medium): 100%; dose from which a very significant toxic effect (p<0.001) is observed (Acyrthosiphon pisum; Acyrthosiphon pisum larval growth): ≥ 0.5 mM; mortality at 500 µM (Acyrthosiphon pisum; Acyrthosiphon pisum, read-out: larval mortality): > 80%
